Patent publication US20240100065A1, “METHODS FOR TREATING RECEPTOR-INTERACTING PROTEIN KINASE 1-MEDIATED DISEASES” (Genzyme Corporation, priority 2022, published 2024)
Entries after “also recorded” stand apart in the source; their conditions may differ.

Assay: Plasma pharmacokinetics after single and repeated oral doses
Format: in vivo, healthy adult participants (human)
Conditions: for AUC ratio, point estimate / AUClast ratio, point estimate / Cmax ratio, point estimate: Part 1a fasted
Procedure: In Part 1a, plasma samples were collected before dosing and at 10 post-dose timepoints on Day 1 (30 minutes, 1 hour, followed by every hour until 6 hours, and then every 2 hours until 12 hours), and single samples on Day 2 (at 24 hours) and Day 3 (at 48 hours). In Part 1b, timepoints included at least pre-dose and at 10 post-dose timepoints, including plasma sampling at the same time of CSF sampling. In Part 2, on Day 1 and Day 14, plasma samples were collected at pre-dose and at 10 to 11 post-dose timepoints. In addition, plasma samples were collected on Days 2, 3, 5, 7, 11, 15, 16, and 17.
PK population included all participants exposed to Compound 1 with no major or critical deviations related to Compound 1 and for whom PK data were considered sufficient and interpretable. PK parameters were summarized by descriptive statistics for each dose level group. Distribution of Tmax values was represented by histogram plots for each dose level group. In Part 1a, dose proportionality was assessed using a linear model on Cmax, AUClast and AUC. In Part 2, all PK analyses were performed separately for each regimen (OD and BID). Steady state was assessed on Ctrough using a non-linear model. Accumulation was assessed using a linear model on log-transformed accumulation ratio. Dose proportionality was assessed using a power model on Cmax and AUCtau on Day 1 and Day 14, separately. Variance components of log-transformed Cmax and AUCtau were estimated using a linear model. In Part 1b, CSF concentration was described by dose level group and CSF to plasma unbound concentration ratios calculated were described in the same way. 4β-hydroxycholesterol on Day 14 versus Day 1 pre-dose concentration ratios were summarized using descriptive statistics by dose level group and point estimates with 90% confidence interval (90% CI) for the geometric mean of the log-transformed Day14/Day1 ratio was calculated in Part 2.

[1] = 20 mg vs. 10 mg (dose increase = 2)
[2] = 30 mg vs. 10 mg (dose increase = 3)
[3] = 30 mg vs. 20 mg (dose increase = 1.5)
[4] = 40 mg vs. 10 mg (dose increase = 4)
[5] = 40 mg vs. 20 mg (dose increase = 2)
[6] = 40 mg vs. 30 mg (dose increase = 1.33)

CC(C)(C(=O)N1CCOc2c(C#N)cncc2C1)C(F)F [Compound 1, 4-(3,3-difluoro-2,2-dimethyl-propanoyl)-3,5-dihydro-2H-pyrido[3,4-f] [1,4]oxazepine-9-carbonitrile]
Accumulation ratio (AUC0-24h), Day 14/Day 1 (10 mg QD): 1.31
Accumulation ratio (Cmax), Day 14/Day 1 (10 mg QD): 1.00
Accumulation ratio (AUC0-12h), Day 14/Day 1 (15 mg BID): 1.45
Accumulation ratio (Cmax), Day 14/Day 1 (15 mg BID): 1.24
Accumulation ratio (AUC0-12h), Day 14/Day 1 (20 mg BID): 1.63
Accumulation ratio (Cmax), Day 14/Day 1 (20 mg BID): 1.71
Accumulation ratio (AUC0-24h), Day 14/Day 1 (20 mg QD): 1.13
Accumulation ratio (Cmax), Day 14/Day 1 (20 mg QD): 1.06
Cmax (20 mg QD, MAD study, read-out: Mean observed Cmax at steady state): 860 nM
Within-subject variability for AUCtau (BID cohorts): 11.3%
Within-subject variability for Cmax (BID cohorts): 17.9%
Total variability for AUCtau (BID dosing regimen): 28.4%
Total variability for Cmax (BID dosing regimen): 32.2%
Dose proportionality: AUC0-24h (AUCtau) ratio for dose ratio (r) = 2 (Day 14, 10 and 20 mg QD): 1.51
Dose proportionality: Cmax ratio for dose ratio (r) = 2 (Day 14, 10 and 20 mg QD): 1.58
Dose proportionality: AUC0-12h (AUCtau) ratio for dose ratio (r) = 1.3333 (Day 14, 15 and 20 mg BID): 1.32
Dose proportionality: Cmax ratio for dose ratio (r) = 1.3333 (Day 14, 15 and 20 mg BID): 1.31
AUC ratio, point estimate [1]: 2.07
AUClast ratio, point estimate [1]: 2.11
Cmax ratio, point estimate [1]: 2.08
AUC ratio, point estimate [2]: 2.09
AUClast ratio, point estimate [2]: 2.16
Cmax ratio, point estimate [2]: 3.60
AUC ratio, point estimate [3]: 1.01
AUClast ratio, point estimate [3]: 1.02
Cmax ratio, point estimate [3]: 1.73
AUC ratio, point estimate [4]: 4.43
AUClast ratio, point estimate [4]: 4.56
Cmax ratio, point estimate [4]: 4.79
AUC ratio, point estimate [5]: 2.15
AUClast ratio, point estimate [5]: 2.16
Cmax ratio, point estimate [5]: 2.31
AUC ratio, point estimate [6]: 2.12
AUClast ratio, point estimate [6]: 2.11
Cmax ratio, point estimate [6]: 1.33
AUC, GM (Part 1a single 10 mg fasted): 1170 ng·h/mL
CL/F, GM (Part 1a single 10 mg fasted): 8.56 L/h
CL/F, mean (Part 1a single 10 mg fasted): 9.11 L/h
Cmax, GM (Part 1a single 10 mg fasted): 116 ng/mL
T1/2z, GM (Part 1a single 10 mg fasted): 7.97 h
T1/2z, mean (Part 1a single 10 mg fasted): 8.22 h
Tlast, median (Part 1a single 10 mg fasted): 48.0 h
Tmax, median (Part 1a single 10 mg fasted): 1.02 h
AUC, GM (Part 1a single 20 mg fasted): 2410 ng·h/mL
AUC, mean (Part 1a single 20 mg fasted): 2450 ng·h/mL
AUClast, GM (Part 1a single 20 mg fasted): 2360 ng·h/mL
AUClast, mean (Part 1a single 20 mg fasted): 2400 ng·h/mL
CL/F, GM (Part 1a single 20 mg fasted): 8.28 L/h
CL/F, mean (Part 1a single 20 mg fasted): 8.43 L/h
Cmax, GM (Part 1a single 20 mg fasted): 241 ng/mL
T1/2z, GM (Part 1a single 20 mg fasted): 7.48 h
T1/2z, mean (Part 1a single 20 mg fasted): 7.63 h
Tlast, median (Part 1a single 20 mg fasted): 48.0 h
Tmax, median (Part 1a single 20 mg fasted): 1.50 h
AUC, GM (Part 1a single 30 mg fasted): 2440 ng·h/mL
AUClast, GM (Part 1a single 30 mg fasted): 2420 ng·h/mL
CL/F, GM (Part 1a single 30 mg fasted): 12.3 L/h
CL/F, mean (Part 1a single 30 mg fasted): 13.1 L/h
Cmax, GM (Part 1a single 30 mg fasted): 417 ng/mL
T1/2z, GM (Part 1a single 30 mg fasted): 5.70 h
T1/2z, mean (Part 1a single 30 mg fasted): 5.99 h
Tlast, median (Part 1a single 30 mg fasted): 48.0 h
Tmax, median (Part 1a single 30 mg fasted): 1.00 h
AUC, GM (Part 1a single 40 mg fasted): 5180 ng·h/mL
AUClast, GM (Part 1a single 40 mg fasted): 5120 ng·h/mL
CL/F, GM (Part 1a single 40 mg fasted): 7.72 L/h
CL/F, mean (Part 1a single 40 mg fasted): 8.15 L/h
Cmax, GM (Part 1a single 40 mg fasted): 555 ng/mL
T1/2z, GM (Part 1a single 40 mg fasted): 6.29 h
T1/2z, mean (Part 1a single 40 mg fasted): 6.40 h
Tlast, median (Part 1a single 40 mg fasted): 48.0 h
Tmax, median (Part 1a single 40 mg fasted): 1.50 h
Dose proportionality of exposures (Part 1a, between 10 and 40 mg): no major deviation from dose proportionality; also recorded: increased according to dose proportionality
AUC, GM (Part 1b single 10 mg fed): 1370 ng·h/mL
AUClast, GM (Part 1b single 10 mg fed): 1170 ng·h/mL
CL/F, GM (Part 1b single 10 mg fed): 7.27 L/h
CL/F, mean (Part 1b single 10 mg fed): 7.63 L/h
Cmax, GM (Part 1b single 10 mg fed): 111 ng/mL
Cmax, mean (Part 1b single 10 mg fed): 115 ng/mL
T1/2z, GM (Part 1b single 10 mg fed): 7.97 h
T1/2z, mean (Part 1b single 10 mg fed): 8.09 h
Tlast, median (Part 1b single 10 mg fed): 24.0 h
Tmax, median (Part 1b single 10 mg fed): 4.24 h
AUC, GM (Part 1b single 40 mg fed): 4740 ng·h/mL
AUClast, GM (Part 1b single 40 mg fed): 3960 ng·h/mL
CL/F, GM (Part 1b single 40 mg fed): 8.43 L/h
CL/F, mean (Part 1b single 40 mg fed): 8.92 L/h
Cmax, GM (Part 1b single 40 mg fed): 374 ng/mL
T1/2z, GM (Part 1b single 40 mg fed): 8.03 h
T1/2z, mean (Part 1b single 40 mg fed): 8.31 h
Tlast, median (Part 1b single 40 mg fed): 24.0 h
Tmax, median (Part 1b single 40 mg fed): 4.5 h
Mean T1/2z across doses and regimens (Part 2, Day 14): 7.3 to 9.1 h
Median time to steady state of plasma concentrations (Part 2, after first administration, irrespective of dose or regimen): 1.4 to 2 days
